Tested on: NIH3T3 cell
Test: NIH3T3 cell adhesion on film
Format: cell-based
Conditions: seeded 10^4 cells/cm^2 in D-MEM, 5% CO2, 37° C., 1 hour, washed three times with PBS, counted at five positions
Protocol: A NIH3T3 cell suspended in D-MEM was added onto the resulting Gly-Arg-Gly-Asp-Ser-conjugated poly(Pro-Hyp-Gly) film at a ratio of 10^4 cells/cm^2, followed by allowing to stand in 5% CO2 at 37° C. for 1 hour. The non-adhered cell was washed out three times with PBS and the number of adhered cells was counted at five positions on the film.

Row | Substance | number of adhered cells (average)
1 | bovine collagen type I: Bovine collagen type I coated on a plastic dish, comparison surface | 6,000 cells/cm^2
2 | poly(Pro-Hyp-Gly) | 2,000 cells/cm^2

From patent US8357774B2, “Polypeptide and process for producing the same” (National University Corporation Nara Institute of Science …, priority 2007, dated 2013)
